Results reported in BindingDB's records for doi:10.3109/14756360902797328 (Rheinische Friedrich-Wilhelms-Universitat Bonn, 2009).

Columns and labels:
Test in all cases: Inhibition Assay
[1] = target: T1, Papain (Carica papaya, UniProt P00784); details: pH 6.5; 25 °C
T1 sequence (P00784 whole entry): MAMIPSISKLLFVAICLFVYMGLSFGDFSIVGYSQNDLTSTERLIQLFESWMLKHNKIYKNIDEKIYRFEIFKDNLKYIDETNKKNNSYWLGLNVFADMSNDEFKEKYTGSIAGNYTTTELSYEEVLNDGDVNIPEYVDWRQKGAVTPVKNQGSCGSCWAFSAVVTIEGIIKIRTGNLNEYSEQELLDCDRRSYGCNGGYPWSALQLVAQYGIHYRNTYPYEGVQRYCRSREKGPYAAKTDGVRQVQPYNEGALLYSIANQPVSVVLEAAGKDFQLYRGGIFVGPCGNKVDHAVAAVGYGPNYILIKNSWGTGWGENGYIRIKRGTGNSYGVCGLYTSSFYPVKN
Description: Papain enzyme activities were determined by spectrophotometric detection of the product p-nitroaniline at 25 C in a a multicell holder (parallel measurements for each single inhibitor determination) at a wavelength of 405 nm.

[2] = target: Cathepsin S (Homo sapiens, UniProt P25774); details: pH 6.5; 37 °C
Cathepsin S, sequence (P25774 whole entry): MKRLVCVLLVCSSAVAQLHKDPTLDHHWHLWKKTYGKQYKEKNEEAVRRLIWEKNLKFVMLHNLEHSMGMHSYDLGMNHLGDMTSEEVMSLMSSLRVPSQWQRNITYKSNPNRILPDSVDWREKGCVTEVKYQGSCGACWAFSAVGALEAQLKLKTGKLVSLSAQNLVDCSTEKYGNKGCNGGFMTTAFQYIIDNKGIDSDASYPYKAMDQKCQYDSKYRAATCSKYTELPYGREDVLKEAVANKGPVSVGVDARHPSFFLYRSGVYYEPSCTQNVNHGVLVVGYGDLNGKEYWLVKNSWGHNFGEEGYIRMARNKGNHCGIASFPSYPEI
Description: (§1) Cathepsin enzyme activities were calculated from kinetic measurements performed by fluorimetric detection of the product 7-amino-4-methylcoumarin at 37 C in a stirred cuvette. The wavelengths for excitation and emission were 360nm and 440nm.

[3] = target: Procathepsin L (Bos taurus, UniProt P25975); details: pH 6; 37 °C
Procathepsin L, sequence (P25975 whole entry): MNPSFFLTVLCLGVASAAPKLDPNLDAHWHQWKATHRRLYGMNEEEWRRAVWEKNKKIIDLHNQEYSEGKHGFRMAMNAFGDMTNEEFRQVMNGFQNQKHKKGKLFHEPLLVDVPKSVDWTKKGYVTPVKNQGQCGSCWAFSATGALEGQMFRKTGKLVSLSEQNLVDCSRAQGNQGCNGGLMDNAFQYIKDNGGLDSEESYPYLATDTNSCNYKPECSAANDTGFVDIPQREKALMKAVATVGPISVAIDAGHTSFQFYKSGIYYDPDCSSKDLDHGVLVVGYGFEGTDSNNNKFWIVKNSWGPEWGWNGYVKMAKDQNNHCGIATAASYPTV
Description: as §1

[4] = target: T2, Cathepsin K (Homo sapiens, UniProt P43235); details: pH 5; 37 °C
T2 sequence (P43235 whole entry): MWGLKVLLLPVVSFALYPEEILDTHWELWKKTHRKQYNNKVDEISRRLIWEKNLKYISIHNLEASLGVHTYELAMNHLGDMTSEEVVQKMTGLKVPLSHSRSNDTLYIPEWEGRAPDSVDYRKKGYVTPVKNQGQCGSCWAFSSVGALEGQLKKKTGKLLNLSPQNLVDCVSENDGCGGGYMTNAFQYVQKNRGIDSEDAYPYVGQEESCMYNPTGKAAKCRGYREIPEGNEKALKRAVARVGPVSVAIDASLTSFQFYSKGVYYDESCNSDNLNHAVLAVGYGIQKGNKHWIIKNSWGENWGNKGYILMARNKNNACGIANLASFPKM
Description: as §1

| Ki [1] | Ki [2] | Ki [3] | Ki [4] | SMILES |
| --- | --- | --- | --- | --- |
| 250 nM | 650 nM | 270 nM | 3600 nM | CSCCC(C#N)NC(=O)[C@H](Cc1ccccc1)NC(=O)OC(C)(C)C (stereo partly specified) [Dipeptide nitrile, 7] |
| – | 730 nM | 520 nM | 3800 nM | C[S+](C)CCC(C#N)NC(=O)[C@H](Cc1ccccc1)NC(=O)OC(C)(C)C (stereo partly specified) [Dipeptide nitrile, 8] |
| 1100 nM | 840 nM | 900 nM | 6300 nM | CC(C)(C)OC(=O)N[C@@H](Cc1ccccc1)C(=O)N[C@H](C#N)CC#N [Dipeptide nitrile, 10] |
